Columns and labels:
relapsed refractory NHL = assay: Phase 2 NHL trial: best response by molecular variant; type: in vivo, human
Experimental: Archive and cell-free tumor DNA collected from relapsed refractory NHL patients phase I and II trials, were tested in the NGS panel as described in Examples 1 and 2. The content of the panel included molecular variants occurring in NHL at ≥5% frequency. (Tables 15 and 17-19, FIGS. 19A-22C). […] Through correction of the background error by molecular bar coding the NHL specific plasma select panel was able to accurately detect mutations down to 0.1% allelic frequency (FIG. 13A and FIG. 13B). Translocations of ALK were detected in a cell-free DNA validation test set with samples from the phase I patients at a tumor purity of as low as 0.1% (FIG. 14). Sequencing of phase 1 NHL patients utilizing the 62 gene NHL NGS panel was completed for 10 archive tumor samples and 15 ctDNA samples (Table 15, FIG. 19A and FIG. 19B). In addition, microsatellite instability was monitored through the analysis of 5 distinct markers (BAT-25, BAT-26, MONO-27, NR-21 and NR-24), leading to one patient in the phase I trial being identified as microsatellite unstable based on the five tested markers (Table 15 and FIG. 19A and FIG. 19B, columns A16 and C16). Sequencing and an initial analysis of samples from patients in a phase 2 trial was completed with 58 archive tumor and 72 ctDNA baseline patient samples, wherein 48 of the archive tumor patients and 68 of the ctDNA patients were sequenced with reported response data.

[1] = tested on: relapsed or refractory solid tumors or B-cell lymphoma; assay: Phase 1 clinical trial (NCT01897571): tumor response; type: in vivo, human
Experimental: Table 10 describes a Phase 1 clinical trial design (sponsor protocol no.: E7438-G000-001, ClinicalTrials.gov identifier: NCT01897571). The study population included subjects with relapsed or refractory solid tumors or B-cell lymphoma. Subjects received a 3+3 dose escalation in expansion cohorts receiving 800 mg BID and 1600 mg BID, respectively, or a cohort for ascertaining the effect of food on dosing at 400 mg BID. The primary endpoint was a determination of recommended phase II dose (RP2D)/maximum tolerated dose (MTD). Secondary endpoints included safety, pharmacokinetics (PK), pharmacodynamics (PD) and tumor response, assessed every 8 wks.

[2] = phase 2, archive tumor, 6 patients with MYD88 (273P) mutations
[3] = phase 2, archive tumor, 9 patients with EZH2 mutations
[4] = phase 2, archive tumor, 13 patients with STAT6 mutations
[5] = phase 2, ctDNA variant allele frequencies of 0.1%, 6 patients with MYD88 (273P) mutations
[6] = phase 2, ctDNA variant allele frequencies of 0.1%, 11 patients with EZH2 mutations
[7] = phase 2, ctDNA variant allele frequencies of 0.1%, 14 patients with STAT6 mutations
[8] = phase 2, ctDNA variant allele frequencies of 0.1%, 18 patients with MYC mutations
[9] = phase 2, ctDNA variant allele frequencies of 1%, 5 patients with MYD88 (273P) mutations
[10] = phase 2, ctDNA variant allele frequencies of 1%, 8 patients with EZH2 mutations
[11] = phase 2, ctDNA variant allele frequencies of 1%, 10 patients with STAT6 mutations

CCN(c1cc(-c2ccc(CN3CCOCC3)cc2)cc(C(=O)NCc2c(C)cc(C)[nH]c2=O)c1C)C1CCOCC1 [tazemetostat]
Response (relapsed refractory NHL; Sample ID 10012004, STAT6 419D > G, vaf 42%, DLBCL GCB EZH2 Wild-type): Progressive Disease | Response (relapsed refractory NHL; Sample ID 10032007, STAT6 419D > G, vaf 36%, FL EZH2 Wild-type): Partial Response | Response (relapsed refractory NHL; Sample ID 10042005, STAT6 419D > G, vaf 19%, FL EZH2 Wild-type): Partial Response | Response (relapsed refractory NHL; Sample ID 10052001, STAT6 419D > G, vaf 24%, FL EZH2 Mutant): Partial Response | Response (relapsed refractory NHL; Sample ID 10062002, STAT6 419D > G, vaf 29%, DLBCL GCB EZH2 Wild-type): Stable Disease | Response (relapsed refractory NHL; Sample ID 20012001, STAT6 286Q > R, vaf 24%, DLBCL GCB EZH2 Wild-type): Stable Disease | Response (relapsed refractory NHL; Sample ID 20012003, STAT6 417N > S, vaf 27%, DLBCL GCB EZH2 Wild-type): Stable Disease | Response (relapsed refractory NHL; Sample ID 20022001, STAT6 377E > K, vaf 33%, FL EZH2 Mutant): Partial Response | Response (relapsed refractory NHL; Sample ID 20022008, STAT6 371C > R, vaf 35%, FL EZH2 Wild-type): Progressive Disease | Response (relapsed refractory NHL; Sample ID 20042003, STAT6 419D > A, vaf 39%, DLBCL GCB EZH2 Mutant): Partial Response | Response (relapsed refractory NHL; Sample ID 20052004, STAT6 419D > A, vaf 30%, DLBCL GCB EZH2 Wild-type): Complete Response | Response (relapsed refractory NHL; Sample ID 30022001, STAT6 419D > H, vaf 42%, DLBCL GCB EZH2 Wild-type): Progressive Disease | Response (relapsed refractory NHL; Sample ID 50022001, STAT6 419D > Y, vaf 39%, DLBCL non-GCB): Stable Disease | response associated with MYC translocations (relapsed refractory NHL; phase 2, archive tumor, 2 MYC translocations): lack of response | best response CR, number of patients (relapsed refractory NHL; [2]): 3 | best response PD, number of patients (relapsed refractory NHL; [2]): 1 | best response PR, number of patients (relapsed refractory NHL; [2]): 1 | best response PD, number of patients (relapsed refractory NHL; phase 2, archive tumor, 7 patients with MYC mutations): 5 | best response PD, number of patients (relapsed refractory NHL; [3]): 2 | best response PR, number of patients (relapsed refractory NHL; [3]): 4 | best response SD, number of patients (relapsed refractory NHL; [3]): 3 | best response CR, number of patients (relapsed refractory NHL; [4]): 1 | best response PD, number of patients (relapsed refractory NHL; [4]): 3 | best response PR, number of patients (relapsed refractory NHL; [4]): 5 | best response SD, number of patients (relapsed refractory NHL; [4]): 4 | response associated with MYC translocations (relapsed refractory NHL; phase 2, ctDNA variant allele frequencies of 0.1%, 5 MYC translocations): lack of response | best response CR, number of patients (relapsed refractory NHL; [5]): 2 | best response PD, number of patients (relapsed refractory NHL; [5]): 2 | best response PR, number of patients (relapsed refractory NHL; [5]): 1 | best response SD, number of patients (relapsed refractory NHL; [5]): 1 | best response PD, number of patients (relapsed refractory NHL; [6]): 3 | best response PR, number of patients (relapsed refractory NHL; [6]): 5 | best response SD, number of patients (relapsed refractory NHL; [6]): 2 | best response PD, number of patients (relapsed refractory NHL; [7]): 3 | best response PR, number of patients (relapsed refractory NHL; [7]): 5 | best response SD, number of patients (relapsed refractory NHL; [7]): 6 | best response PD, number of patients (relapsed refractory NHL; [8]): 9 | best response PR, number of patients (relapsed refractory NHL; [8]): 2 | best response SD, number of patients (relapsed refractory NHL; [8]): 3 | response associated with MYC translocations (relapsed refractory NHL; phase 2, ctDNA variant allele frequencies of 1%, 5 MYC translocations): lack of response | best response PD, number of patients (relapsed refractory NHL; phase 2, ctDNA variant allele frequencies of 1%, 5 patients with MYC mutations): 3 | best response CR, number of patients (relapsed refractory NHL; [9]): 2 | best response PD, number of patients (relapsed refractory NHL; [9]): 2 | best response PR, number of patients (relapsed refractory NHL; [9]): 1 | best response PD, number of patients (relapsed refractory NHL; [10]): 3 | best response PR, number of patients (relapsed refractory NHL; [10]): 4 | best response SD, number of patients (relapsed refractory NHL; [10]): 1 | best response PD, number of patients (relapsed refractory NHL; [11]): 2 | best response PR, number of patients (relapsed refractory NHL; [11]): 4 | best response SD, number of patients (relapsed refractory NHL; [11]): 4 | clinical responses in phase 1 clinical trial ([1]; both EZH2 mutant and wild type patients): demonstrated clinical responses | clinical activity as a monotherapy ([1]; relapsed or refractory DLBCL (GCB and non-GCB), FL and MZL): demonstrates clinical activity

From US20220193084A1, “INHIBITORS OF EZH2 AND METHODS OF USE THEREOF” (Epizyme, Inc., priority 2015, published 2022)
